“And” between values parts separate entries of the source, which are not always exact repeats. Identical values can stand only once. Like-named read-outs stand apart in the source and are kept apart here.
Columns and labels:
UGTs (human LMs) = conditions: human LMs (HLM)
[1] = Pharmacokinetic profile of PND in rats with or without ibrutinib (UGTs inhibitor) pretreatment; type: in vivo, rat; conditions: for Cmax / Tmax: 3.5 mg/kg; for MRT inf: n = 3, read-out: MRT0-∞
Experimental: Ibrutinib, a broad inhibitor of UGTs, was used to block the metabolism of PND via UGTs. PND and ibrutinib were formulated in PEG 300-water (70%: 30%, v/v) and DMSO-Cremophor EL-water (10%: 30%: 60%, v/v/v), respectively. Rats were pretreated through intraperitoneal (i.p.) injection of ibrutinib (100 mg/kg) or vehicle (three rats per group). After 0.5 h, PND (3.5 mg/kg) were administrated via gavage. Then blood samples were taken into heparinized tubes for separating plasma. Time points included before dosing, at 5, 20 and 45 min and 1.25, 2, 3, 4, 6, 8, 12, 24 and 48 h after dosing. Plasma was separated by centrifuging the blood samples at 3000 rpm for 10 min and then stored at −40 °C until analysis. The plasma samples were analyzed using the reported LC–MS/MS method as described in our previous study.
Figures and statistics were plotted and calculated using GraphPad Prism (version 8.4.3) and Microsoft Excel (version 2019). Metabolic pathways were illustrated with ChemBioDraw Ultra (version 13.0). Pharmacokinetic parameters were estimated using non-compartmental methods (WinNonlin version 2.0, Pharsight Co., Certara, NJ, USA). All pharmacokinetic parameters were given as the mean ± standard deviation. All statistical analyses were performed using SAS (version 9.4; SAS Institute Inc., Cary, NC, USA). A p value < 0.05 was considered statistically significant.

CYPs (rat LMs) = conditions: rat LMs (RLM)
[2] = rat LMs
CYPs (mouse LMs) = conditions: mouse LMs (MLM)
UGTs (rat LMs) = conditions: rat LMs (RLM)
CYPs [3] = test: in vitro; conditions: human, pH 7.4
CYPs [4] = test: in vitro; conditions: mouse, pH 7.4
[5] = parameters: method as in PMID 32520560; conditions: cited from earlier work
UGTs (mouse LMs) = conditions: mouse LMs (MLM)
CYPs [6] = test: in vitro; conditions: rat, pH 7.4
CYPs (human LMs) = conditions: human LMs (HLM)
[7] = rat bile, after 72 h of administration via gavage (3.5 mg/kg) and injection (0.35 mg/kg)
IAV = test system: IAV; parameters: method as in PMID 32520560; conditions: mice, oral dosing; superior to oseltamivir; cited from earlier work
[8] = Metabolite profiling of PND in rat bile, urine, feces and plasma by UHPLC–HRMS; type: in vivo; conditions: feces
Experimental: Rats, three animals in each group, were randomly selected and treated with PND orally (3.5 mg/kg) or intravenously (0.35 mg/kg). Blood samples were collected into heparinized tubes by retro-orbital bleeding via capillary tubes under isoflurane anesthesia at 0.33, 3 and 8 h after oral administration and at 0.25, 4 and 8 h after intravenous injection. Plasma was separated by centrifuging the blood samples at 3000 rpm for 10 min. Rats were individually housed in metabolic cages (Tecniplast, Buguggiate, Italia) for collecting urine and feces samples. Additionally, the bile duct of rats under anesthesia with chloral hydrate (10% w/v) were cannulated with a S2-RBDC cannula (Skillsmodel, Beijing) for collecting bile. Urine and feces as well as bile samples were collected pre-dosing and at the following intervals postdosing: 0–2, 2–4, 4–6, 6–8, 8–10, 10–12 (0–12 for feces sample), 12–24, 24–36, 36–48 and 48–72 h. Bile and urine volume was recorded. Feces samples were freeze-dried, weighed, powered, added with water (9 mL/g) and homogenized. All samples were stored at −40 °C until analysis.
Identification analysis of metabolites in bio-samples was performed as described previously using a Dionex Ultimate 3000 UHPLC system combined with a Q-Exactive Focus Orbitrap mass spectrometer (Thermo Fischer Scientific, MA, USA) fitted with a CORTECS T3 column (2.1 × 150 mm, 2.7 μm; Waters, MA, USA). […]

[9] = mouse LMs
[10] = human LMs
[11] = PND i.g 3.5 mg/kg, ibrutinib i.p. 100 mg/kg versus control
[12] = rat, plasma, oral, PND i.g 3.5 mg/kg after i.p. Ibrutinib (100 mg/kg) pretreatment, Mean ± SD, n = 3
[13] = rat, plasma, po, PND i.g 3.5 mg/kg, Control, Mean ± SD, n = 3

CC(=O)c1cc(C)c(O)c(Cc2[nH]c3ccccc3c2Cc2c(O)c(C)cc(C(C)=O)c2O)c1O [PND, Penindolone]
Clint (UGTs (human LMs)): 0.089 µL/min
Km (UGTs (human LMs)): 23.4 µM
Vmax (UGTs (human LMs)): 2.08 nmol/(min×mg Protein)
CLz ([1]; PND i.g 3.5 mg/kg, Control, Mean ± SD, n = 3): 14.7 ± 3.67 mL/min/kg
Elevation of Cmax of PND after pretreatment with ibrutinib [1, 11]: 18.78%
Increase of AUC0–∞ of PND after combination with ibrutinib [1, 11]: 30.56%
Cmax ([1]; rat, plasma, oral, PND i.g 3.5 mg/kg after i.p. Ibrutinib (100 mg/kg) pretreatment, Mean ± SD, n = 3, read-out: Cmax-1): 272 ± 36.9 ng/mL
Tmax ([1]; rat, plasma, oral, PND i.g 3.5 mg/kg after i.p. Ibrutinib (100 mg/kg) pretreatment, Mean ± SD, n = 3, read-out: Tmax-1): 0.47 ± 0.24 h
AUC(0-inf) [1, 12]: 5450 ± 2690 ng·h/mL
Vd [1, 12]: 15.6 ± 6.42 L/kg
half-life [1, 12]: 15.8 ± 9.82 h
clearance ([1]; rat, plasma, oral, PND i.g 3.5 mg/kg after i.p. Ibrutinib (100 mg/kg) pretreatment, Mean ± SD, n = 3, read-out: CLz (converted)): 13.5 mL/min/kg
MRT inf ([1]; rat, plasma, oral, PND i.g 3.5 mg/kg after i.p. Ibrutinib (100 mg/kg) pretreatment, Mean ± SD): 23.9 ± 12.7 h
Cmax ([1]; rat, plasma, po, PND i.g 3.5 mg/kg, Control, Mean ± SD, n = 3, read-out: Cmax-1): 229 ± 128 ng/mL
Cmax ([1]; rat, plasma, po, PND i.g 3.5 mg/kg, Control, Mean ± SD, n = 3, read-out: Cmax-2): 197 ± 46.8 ng/mL
Tmax ([1]; rat, plasma, po, PND i.g 3.5 mg/kg, Control, Mean ± SD, n = 3, read-out: Tmax-1): 0.61 ± 0.24 h
Tmax ([1]; rat, plasma, po, PND i.g 3.5 mg/kg, Control, Mean ± SD, n = 3, read-out: Tmax-2): 6 h
AUC(0-inf) [1, 13]: 4180 ± 1190 ng·h/mL
half-life [1, 13]: 4.87 ± 0.3 h
MRT inf ([1]; rat, plasma, po, PND i.g 3.5 mg/kg, Control, Mean ± SD): 12.8 ± 0.22 h
Clint (CYPs (rat LMs)): 0.073 µL/min
Vmax (CYPs (rat LMs)): 1.11 nmol/(min×mg Protein)
PND metabolized in LMs in the presence of NADPH ([2]; NADPH, within 1 h, PND 2 µM): Approximately 96%
Prototype drug eliminated in the presence of UDPGA ([2]; UDPGA, PND 2 µM): more than 65%
Stability in LMs without co-factors ([2]; without NADPH or UDPGA): stable
Clint (CYPs (mouse LMs)): 0.069 µL/min
Vmax (CYPs (mouse LMs)): 1.11 nmol/(min×mg Protein)
Clint (UGTs (rat LMs)): 0.030 µL/min
Km (UGTs (rat LMs)): 46.7 µM
Vmax (UGTs (rat LMs)): 1.38 nmol/(min×mg Protein)
Km (CYPs [3]): 97.7 µM
Km (CYPs [4]): 16.1 µM
Bioavailability [5]: low
Clint (UGTs (mouse LMs)): 0.198 µL/min
Km (UGTs (mouse LMs)): 31.6 µM
Vmax (UGTs (mouse LMs)): 6 nmol/(min×mg Protein) and 6.25 nmol/(min×mg Protein)
Km (CYPs [6]): 15.2 µM
Clint (CYPs (human LMs)): 0.013 µL/min
Vmax (CYPs (human LMs)): 1.28 nmol/(min×mg Protein)
Accumulation of PND in bile [7]: 2.68–3.35 % of dosing
Protection against IAV-induced death and weight loss (IAV): protect mice against IAV-induced death and weight loss
Detection of PND (M0) in bio-samples [8]: detected in all bio-samples
PND metabolized in LMs in the presence of NADPH ([9]; NADPH, within 1 h, PND 2 µM): ~89%
Prototype drug eliminated in the presence of UDPGA ([9]; UDPGA, PND 2 µM): more than 65%
Stability in LMs without co-factors ([9]; without NADPH or UDPGA): stable
PND diminished in LM system in the presence of NADPH ([10]; NADPH, within 60 min, PND 2 µM): Less than 16%
Prototype drug eliminated in the presence of UDPGA ([10]; UDPGA, PND 2 µM): more than 65%
Stability in LMs without co-factors ([10]; without NADPH or UDPGA): stable
